Laboratory results as given in publication PMC10644720 (Frontiers in Pharmacology, 2023).

Assays:
human washed platelets = assay: MDA, SOD and GPx activity in platelet lysate supernatant; assay type: cell-based; settings: convulxin- and collagen-induced
Protocol: MDA, SOD, GPx, and NADPH oxidase activity were measured as previously described ([Krotz et al., 2002]; [Paul et al., 2019]; [Pan et al., 2021]). After incubation and activation, the reaction was stopped by adding 10 mM EGTA. The platelets were pelleted by centrifugation at 20,000 × g for 10 min at 4°C and resuspended in Tyrode’s buffer with 0.1% phosphatase and protease inhibitors (Cat No. 04906837001, Roche Applied Science, Penzberg, Germany; Cat No. P-8340, Sigma, St. Louis, MO, United States). The platelets were disrupted by passing them 10 times through a 29-gauge needle, followed by centrifugation at 2000 × g for 10 min at 4°C to separate the supernatant and precipitate. The detection of MDA, SOD, and GPx in the supernatant was performed according to the kit’s instructions for SOD (Cat No. BC0170, Solarbio Life Science, Beijing, China), MDA (Cat No. S0131S, Beyotime Institute of Biotechnology, Shanghai, China) and GPx (Cat No. S0056, Beyotime Institute of Biotechnology, Shanghai, China). In order to determine NADPH oxidase (NOX) activity, platelet lysate (12.5 μg) was incubated with 10 µM lucigenin and 0.5 mM NADPH at 37°C in the dark. The absorbance values were detected at 450 nm using a spectrophotometer Multiskan FC (ThermoFisher Scientific Inc., Waltham, MA, United States). Protein content was determined by the Bradford method.

[1] = molecular target: T1, Recombinant human GPVI protein (Homo sapiens, UniProt Q9HCN6); assay: Surface plasmon resonance (SPR); settings: Biacore S200, 25°C, 1:1 binding model
T1 construct: purchased MedChemExpress HY-P70180
T1 sequence (Q9HCN6 21-267 limits assumed): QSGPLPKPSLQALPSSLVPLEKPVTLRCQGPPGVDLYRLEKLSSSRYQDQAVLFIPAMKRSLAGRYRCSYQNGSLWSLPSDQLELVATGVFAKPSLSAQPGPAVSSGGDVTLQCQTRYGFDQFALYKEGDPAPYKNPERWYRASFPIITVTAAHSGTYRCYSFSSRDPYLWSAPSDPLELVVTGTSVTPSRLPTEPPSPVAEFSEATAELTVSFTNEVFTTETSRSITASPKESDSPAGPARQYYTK
Protocol: The SPR experiment was performed on a Biacore S200 instrument (GE Healthcare; Uppsala, Sweden) at 25°C. Recombinant human GPVI protein, rhGPVI (Cat. HY-P70180; MedChemExpress), was immobilized at the level of 4,400 response units, with 10 mM sodium acetate buffer (pH 4.5) on a Series S CM5 Sensor Chip (Cat. 29104988; cytiva) at the concentration of 50 μg/mL.

pulmonary thrombosis = assay: Collagen-epinephrine-induced acute pulmonary embolism model and plasma oxidative markers; assay type: in vivo, C57BL/6 mice; settings: luteolin 35 μM/kg
Protocol: The acute pulmonary embolism model in mice was similar to the previously reported literature with slight modifications ([Pan et al., 2021]). […] after a retro-orbital sinus injection of collagen (100 μg/kg)-epinephrine (300 μg/kg), the mice were anesthetized by pentobarbital (45 mg/kg, i.p.). Whole blood obtained from the eyes was anticoagulated with EDTA·2Na. Whole blood was centrifuged at 3,000 rpm for 10 min to get plasma. Measurement of MDA and SOD in plasma followed the manufacturer’s protocols. Mice were sacrificed by cervical dislocation. The lung tissue was taken and fixed in 4% paraformaldehyde overnight. Lung and sternum tissues were fixed in 4% paraformaldehyde, embedded in paraffin, and sectioned into 5-μm sections. After dewaxing and washing, the slices were incubated overnight at 4°C for immunostaining with anti-mouse CD41 antibody (Cat No. GTX113758, GeneTex Inc., Irvine, CA, United States) 0.63 μg/mL or with anti-mouse CD42b antibody (Cat No. 12860-1-AP; Proteintech Group Inc., Chicago, IL, United States) 1 μg/mL or an equivalent concentration of polyclonal non-immune IgG (Cat No. GTX213110-01; GeneTex) as control. The sections were washed three times and incubated for 50 min at room temperature with secondary antibodies. The nuclei were counterstained using hematoxylin. The tissues were observed using 3,3′-Diaminobenzidine tetrahydrochloride.

Tail bleeding in mice = assay type: in vivo, C57BL/6 mice; settings: luteolin 35 μM/kg or aspirin i.p., 30 min after injection; vs DMSO
Protocol: The tail break hemorrhage experiment in mice was performed as previously reported, with slight modifications ([Liu et al., 2012]). […] Before the experiment, the mouse tails were immersed in saline for 3 min at 37°C. Then, 30 min after injection, the tails were quickly cut off using a surgical knife blade and placed in saline at 37°C. The cutting site was 5 mm from the end of the tail tip. The bleeding time of the broken tails was observed and recorded.

human platelets = settings: cited from earlier work
[2] = design: method as in Aziz et al., 2018; settings: intraperitoneal injection; ref Aziz et al., 2018; cited from earlier work
[3] = design: method as in Cheurfa et al., 2019; settings: diet-induced obese mice; 200 mg/kg/d; ref Cheurfa et al., 2019; cited from earlier work
carotid thrombosis = tested on: carotid thrombosis; design: method as in Choi et al. (2015); settings: mice; ref Choi et al. (2015); cited from earlier work

For `O=c1cc(-c2ccc(O)c(O)c2)oc2cc(O)cc(O)c12` [Luteolin], the GPx activity (human washed platelets) was “promoted”, the MDA activity (human washed platelets) was “inhibited” and the SOD activity (human washed platelets) was “promoted”. For the same molecule, the K a [1] was 7,227 m^−1s^−1, the K d [1] was 0.03 s⁻¹ and the Kd [1] was 4.13 µM. For the same molecule, the “area and size of thrombus formation in lungs” value (pulmonary thrombosis; 30 min before collagen-epinephrine) was “significantly attenuated”, the “MDA levels in plasma” value (pulmonary thrombosis; mice with pulmonary embolism) was “significantly decreased” and the “SOD activity in plasma” value (pulmonary thrombosis; mice with pulmonary embolism) was “increased”. The tail bleeding time (Tail bleeding in mice) was “no significant prolonging effect”, the IC50 (human platelets; 2 μM U46619, ref Guerrero et al., 2005, read-out: IC50, inhibition of U46619-induced platelet aggregation) was 47 ± 13.3 µM and the “ADP induced platelet aggregation” value (human platelets; 25–100 μM luteolin, 1 h incubation, ref Lu et al., 2021) was “inhibited”. For the same molecule, the “collagen, U46619, and ADP-induced activation in human platelets” value (human platelets; ref Guerrero et al., 2005, Guerrero et al., 2007, Lu et al., 2021) was “significantly inhibits”, the LD50 [2] was 180 mg/kg and the low-density lipoprotein content [3] was “significantly reduced”. The FeCl3-induced carotid thrombosis (carotid thrombosis) was “significantly inhibits”.
